According to US9255090B2, “Heterocyclyl derivatives and their use as prostaglandin D2 receptor modulators” (Actelion Pharmaceuticals Ltd., priority 2012, dated 2016):

What was measured:
hCRTH2 receptor = hCRTH2 receptor (Homo sapiens (Human), UniProt Q9Y5Y4); test: hCRTH2 receptor membranes radioligand (3H-PGD2) displacement assay; type: binding; settings: 3H-PGD2 radioligand displacement, HEK293-hCRTH2 membranes
Method in brief: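 HEK293-hCRTH2 membranes, 20 μg/well; 3H-PGD2 added at 2.5 nM; binding buffer 50 mM Tris, 10 mM MnCl2, 1 mM EDTA, pH 7.0; 90 min RT; GF/C filtration, scintillation count. Nonspecific binding: PGD2 at […].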

eosinophils = test: Eosinophil shape change assay with human plasma; type: cell-based; settings: Homo sapiens, Eosinophil, human plasma (50%), PGD2 100 nM activation, antagonistic activity
Method in brief: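 Human polymorphonuclear cells stained with anti-CD49d-APC, combined with compound-preincubated human plasma (50% of final volume, 4×10^6 cells/ml) for 10 min at 37° C., then stimulated 5 min with 100 nM PGD2 and fixed. Flow cytometry scored percent eosinophils with increased forward scatter.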

Chain of hCRTH2 receptor (Q9Y5Y4 whole entry): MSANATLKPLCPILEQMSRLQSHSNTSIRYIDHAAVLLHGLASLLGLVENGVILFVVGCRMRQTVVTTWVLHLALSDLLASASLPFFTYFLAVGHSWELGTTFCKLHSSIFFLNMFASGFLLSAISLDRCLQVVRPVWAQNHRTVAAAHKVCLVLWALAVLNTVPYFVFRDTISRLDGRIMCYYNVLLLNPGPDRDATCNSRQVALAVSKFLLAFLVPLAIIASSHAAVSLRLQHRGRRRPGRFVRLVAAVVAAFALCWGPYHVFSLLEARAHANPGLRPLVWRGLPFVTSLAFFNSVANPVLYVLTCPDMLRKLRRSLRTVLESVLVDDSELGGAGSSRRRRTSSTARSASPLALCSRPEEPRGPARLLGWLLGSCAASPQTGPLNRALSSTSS

| IC50 (hCRTH2 receptor) | IC50 (eosinophils) | SMILES |
| --- | --- | --- |
| 15 nM | 19 nM | CCOc1ccc(CC(=O)O)cc1-c1ccc(F)c2c1CN(C(=O)CC(C)(C)c1ccc(F)cc1)CC2 [Example 223, (4-Ethoxy-3-{5-fluoro-2-[3-(4-fluoro-phenyl)-3-methyl-butyryl]-1,2,3,4-tetrahydro-isoquinolin-8-yl}-phenyl)-acetic acid] |
| 0.28 nM | 24 nM | CCCOc1ccc(CC(=O)O)cc1-c1ccc(F)c2c1CN(C(=O)OCc1ccccc1)CC2 [Example 197, 8-(5-Carboxymethyl-2-propoxy-phenyl)-5-fluoro-3,4-dihydro-1H-isoquinoline-2-carboxylic acid benzyl ester] |
| 1.68 nM | 22 nM | COc1ccc(CC(=O)O)cc1-c1ccc(Cl)c2c1CN(C(=O)[C@@H]1C[C@H]1c1ccccc1)CC2 [Example 71, {3-[5-Chloro-2-((1R,2R)-2-phenyl-cyclopropanecarbonyl)-1,2,3,4-tetrahydro-isoquinolin-8-yl]-4-methoxy-phenyl}-acetic acid] |
| 10.1 nM | 92 nM | COc1ccc(CC(=O)O)cc1-c1ccc(F)c2c1CN(C(=O)CC(C)(C)c1ccccc1)CC2 [Example 108, {3-[5-Fluoro-2-(3-methyl-3-phenyl-butyryl)-1,2,3,4-tetrahydro-isoquinolin-8-yl]-4-methoxy-phenyl}-acetic acid] |
